Each structure is given as a SMILES string. A value given as a limit tells only on which side of the number the result lay.

The subject of series [1] is efflux pump activity in P. aeruginosa (PA-017, blaNDM). The series can be described thus: EtBr accumulation, inhibition of efflux pump activity. It counts as cell-based. Conditions: EtBr fluorescence compared with positive control CCCP. The method, then: The NDM-producing P. aeruginosa clinical isolate (PA-017, blaNDM) (5 mL, LB medium) was grown to reach the mid-log phase. After centrifugation at 3500 rpm for 15 min, the bacterial pellet was washed twice with PBS and resuspended to OD600 = 0.3 in PBS. To each well of a flat-bottomed black 96-well plate, 182 µL of the bacterial suspension, 4 µL of glucose [final concentration = 0.4% (w/v)], 4 µL of the synthesized compounds or positive control CCCP, and 10 µL of EtBr (final concentration = 1 µg/mL) were added. The plate was incubated at 37 °C, and fluorescence emission from EtBr (λex 480 nm/λem 630 nm) was recorded every 2 min (for 60 min) using a Cytation 5 imaging multi-mode reader (BioTek Instruments, Inc., Winooski, VT, USA).

Another series concerns the target AmpC. Kind of series: β-lactamase inhibition assay (nitrocefin). In kind it is biochemical. Conditions: nitrocefin substrate; read-out: BLi, IC50 AmpC. The method, then: (§1) Recombinant AmpC, OXA-48 (residues 23–265) and VIM-2 (residues 27–266) were prepared from Escherichia coli based on previously established protocols. KPC-2 and NDM-1 are commercially available from LifeSpan Biosciences, Inc., Seattle, WA, USA (LS-G26598) and RayBiotech, Inc., Peachtree Corners, GA, USA (230-00554), respectively. For β-lactamase inhibition assay, in a 96-well plate, 70–0.1 μM (in PBS) of the synthesized compounds (1~14) (100 μL) were mixed with diluted β-lactamase stock (2% DMSO in 200 μL). In a separate 96-well plate, a substrate of AmpC, KPC-2, OXA-48, and VIM-2 (nitrocefin) and NDM-1 (imipenem) were added into each well (final concentrations of 70 μM for nitrocefin and 100 μM for imipenem). After incubation at 37 °C for 20 min, the mixture of the synthesized compounds (1~14) and β-lactamase in one plate was added to the substrate in the other plate. Enzymatic hydrolysis of the substrate was then monitored by a Cytation 5 imaging multimode reader (BioTek Instruments Inc., Winooski, VT, USA) at 486 nm and 300 nm for nitrocefin and imipenem, respectively, for 15 min. The rates of hydrolysis in the presence of the inhibitors were determined when the reaction rate plateaued. Comparison of the enzymatic hydrolysis rates in the presence and the absence of inhibitors (100%) provided the percentage of enzyme inhibition at each concentration of the synthesized compounds. The IC50 values were obtained after non-linear regression (sigmoidal dose-responses) by GraphPad Prism 5 (GraphPad Software, Boston, MA, USA).

A further series concerns the target T1, VIM-2 (Escherichia coli, UniProt Q5U7L7).
T1 construct: VIM-2 (residues 27–266); made in house; host or cells: Escherichia coli
The series can be described thus: β-lactamase inhibition assay (nitrocefin). It counts as biochemical. Conditions: nitrocefin substrate; read-out: BLi, IC50 VIM-2. The method, then: as §1

The target in another series is T2, OXA-48 (Klebsiella pneumoniae, UniProt Q6XEC0).
T2 construct: OXA-48 (residues 23–265); made in house; host or cells: Escherichia coli
The series can be described thus: β-lactamase inhibition assay (nitrocefin). Conditions: nitrocefin substrate; read-out: BLi, IC50 OXA-48. In kind it is biochemical. As for the experimental part: as §1

The target in a further series is T3, KPC-2 (Klebsiella pneumoniae, UniProt Q9F663).
T3 construct: purchased LifeSpan Biosciences, Inc. LS-G26598
The series can be described thus: β-lactamase inhibition assay (nitrocefin). The note with it: nitrocefin substrate; read-out: BLi, IC50 KPC-2. In kind it is biochemical. The method, then:
as §1

The test system of series [2] is NDM-1-Producing P. aeruginosa (PA-017, blaNDM). Kind of series: MIC / checkerboard with ATM. In kind it is cell-based. Conditions: PA-017; for MIC: Pseudomonas aeruginosa, compound alone, read-out: MIC, Cmpd.
The next series has as its target T4, NDM-1 (Klebsiella pneumoniae, UniProt C7C422).
T4 construct: purchased RayBiotech, Inc. 230-00554
The series can be described thus: β-lactamase inhibition assay (imipenem). In kind it is biochemical. The note with it: imipenem substrate; read-out: BLi, IC50 NDM-1. As for the experimental part: as §1

For series [3] the following is noted: rat, cited from earlier work.

T2 sequence (Q6XEC0 23-265 limits assumed): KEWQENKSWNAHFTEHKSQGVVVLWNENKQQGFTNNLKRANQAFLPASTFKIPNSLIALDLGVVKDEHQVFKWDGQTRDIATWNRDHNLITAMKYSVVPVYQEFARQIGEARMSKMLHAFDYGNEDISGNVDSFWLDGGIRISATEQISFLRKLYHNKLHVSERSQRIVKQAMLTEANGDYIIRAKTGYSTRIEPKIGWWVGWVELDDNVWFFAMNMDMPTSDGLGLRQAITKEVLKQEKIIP
T3 sequence (Q9F663 25-293, looked up, species assumed): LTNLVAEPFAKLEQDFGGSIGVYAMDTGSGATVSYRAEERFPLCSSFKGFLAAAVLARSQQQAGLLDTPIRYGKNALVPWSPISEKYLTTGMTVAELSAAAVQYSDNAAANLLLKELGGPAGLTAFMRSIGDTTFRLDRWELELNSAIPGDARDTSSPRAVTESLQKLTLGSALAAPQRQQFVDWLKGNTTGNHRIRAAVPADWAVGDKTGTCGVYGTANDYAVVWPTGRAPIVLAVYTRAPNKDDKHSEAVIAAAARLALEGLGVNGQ
T4 sequence (C7C422 29-270, looked up, species assumed): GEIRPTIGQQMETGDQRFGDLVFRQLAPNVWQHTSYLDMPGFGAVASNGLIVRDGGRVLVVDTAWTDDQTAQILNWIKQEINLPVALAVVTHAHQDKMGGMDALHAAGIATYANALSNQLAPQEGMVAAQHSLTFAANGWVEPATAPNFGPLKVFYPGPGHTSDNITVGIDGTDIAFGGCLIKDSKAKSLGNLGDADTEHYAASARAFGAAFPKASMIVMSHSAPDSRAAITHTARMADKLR

In the case of `CN1CCCC1CCOc1cc(O)c2c(=O)c(OCCC(C)(C)C)c(-c3ccc(F)c(F)c3)oc2c1` (centres unmarked) [Compound 12, 2-(3,4-Difluorophenyl)-3-(3,3-dimethylbutoxy)-5-hydroxy-7-(2-(1-methylpyrrolidin-2-yl)ethoxy)-4H-chromen-4-one], the “EPi (inhibition of efflux pump activity)” value in series [1] was “- ^f”. Further, the IC50 on AmpC is greater than 50 µM; on VIM-2 it was greater than 100 µM; at OXA-48, greater than 100 µM; on KPC-2, greater than 50 µM; on NDM-1 it was greater than 50 µM. For the same compound, in series [2], the “FD (fold decrease in the MIC of ATM upon combination with the compound)” value is on record as 2. For the same compound, the MIC in series [2] is greater than 256 µg/mL.
For the compound `CN1CCN(CCOc2cc(O)c3c(=O)c(OCCC(C)(C)C)c(-c4ccc(F)c(F)c4)oc3c2)CC1` [Compound 13, 2-(3,4-Difluorophenyl)-3-(3,3-dimethylbutoxy)-5-hydroxy-7-(2-(4-methylpiperazin-1-yl)ethoxy)-4H-chromen-4-one], the “EPi (inhibition of efflux pump activity)” value in series [1] is recorded as “- ^f”. Further, the IC50 on AmpC was greater than 50 µM; on VIM-2 it was greater than 100 µM; on OXA-48, greater than 100 µM; at KPC-2 it was greater than 50 µM; on NDM-1, greater than 50 µM. Besides, the “FD (fold decrease in the MIC of ATM upon combination with the compound)” value in series [2] was 2. The MIC in series [2] was greater than 256 µg/mL.
As to `CC(C)(C)CCOc1c(-c2ccc(F)c(F)c2)oc2cc(OCC(=O)Nc3ccccc3)cc(O)c2c1=O` [Compound 9, 2-((2-(3,4-Difluorophenyl)-3-(3,3-dimethylbutoxy)-5-hydroxy-4-oxo-4H-chromen-7-yl)oxy)-N-phenylacetamide], in series [1], the “EPi (inhibition of efflux pump activity)” value is given as “- ^f”. For the same compound, the IC50 at AmpC is greater than 50 µM; at VIM-2 it was 12.6 ± 1.2 µM; at OXA-48 it was 6.4 ± 0.6 µM; on KPC-2, 26.2 ± 1.5 µM; at NDM-1, 7.6 ± 0.3 µM. Besides, the “FD (fold decrease in the MIC of ATM upon combination with the compound)” value in series [2] turned out to be 1. The MIC in series [2] was greater than 256 µg/mL.
In the case of `O=c1c(OCCC2CCCC2)c(-c2ccc(F)c(F)c2)oc2cc(O)cc(O)c12` [Compound 2], the “EPi (inhibition of efflux pump activity)” value in series [1] was “↑↑↑ ^e”. In addition, on AmpC, the half-inhibitory concentration (IC50) came out at 21 ± 2.1 µM. Also, in series [2], the “FD (fold decrease in the MIC of ATM upon combination with the compound)” value came out at 2 and the MIC was greater than 256 µg/mL.
Turning to `O=C(O)COc1cc(O)c2c(=O)c(OCCC3CCCC3)c(-c3ccc(F)c(F)c3)oc2c1` [Compound 6, 2-((3-(2-Cyclopentylethoxy)-2-(3,4-difluorophenyl)-5-hydroxy-4-oxo-4H-chromen-7-yl)oxy)acetic Acid], the “EPi (inhibition of efflux pump activity)” value in series [1] is listed as “↑ ^g”. Also, the half-maximal inhibitory concentration (IC50) is greater than 50 µM at AmpC; 37.3 ± 0.6 µM at VIM-2; greater than 100 µM on OXA-48; greater than 50 µM at KPC-2; 16.1 ± 1.1 µM on NDM-1. Moreover, the “FD (fold decrease in the MIC of ATM upon combination with the compound)” value in series [2] was found to be 4. The MIC in series [2] was greater than 256 µg/mL.
Consider `CC(C)(C)CCOc1c(-c2ccc(F)c(F)c2)oc2cc(OCC(=O)N3CCCCC3)cc(O)c2c1=O` [Compound 10, 2-(3,4-Difluorophenyl)-3-(3,3-dimethylbutoxy)-5-hydroxy-7-(2-oxo-2-(piperidin-1-yl)ethoxy)-4H-chromen-4-one], for which, in series [1], the “EPi (inhibition of efflux pump activity)” value is reported as “- ^f”. The IC50 was greater than 50 µM on AmpC; greater than 100 µM on VIM-2; greater than 50 µM at OXA-48; greater than 50 µM on KPC-2; greater than 50 µM on NDM-1. The “FD (fold decrease in the MIC of ATM upon combination with the compound)” value in series [2] came out at 1. The MIC in series [2] is greater than 256 µg/mL.
For the compound `O=c1c(OCCC2CCCCC2)c(-c2ccc(F)c(F)c2)oc2cc(O)cc(O)c12` [Compound 3], in series [1], the “EPi (inhibition of efflux pump activity)” value is on record as “↑↑↑ ^e”. The IC50 on AmpC was 15.3 ± 1.5 µM. Further, in series [2], the “FD (fold decrease in the MIC of ATM upon combination with the compound)” value came to 4 and the MIC was greater than 256 µg/mL.
Turning to `CC(C)(C)CCOc1c(-c2ccc(F)c(F)c2)oc2cc(O)cc(O)c2c1=O` [Compound 1], the “EPi (inhibition of efflux pump activity)” value in series [1] is listed as “↑↑↑ ^e”. For the same compound, on AmpC, the IC50 was determined as 18.9 ± 1.8 µM. Further, in series [2], the “FD (fold decrease in the MIC of ATM upon combination with the compound)” value is recorded as 2 and the MIC was greater than 256 µg/mL. Also, in series [3], the “F (mean oral bioavailability)” value is recorded as 0.27%. In series [3] (oral administration), the AUClast is 0.02 mg·h/L and the Cmax is 0.01 mg/L.
In the case of `O=C(O)COc1cc(O)c2c(=O)c(OCCC3CCCCC3)c(-c3ccc(F)c(F)c3)oc2c1` [Compound 7, 2-((3-(2-Cyclohexylethoxy)-2-(3,4-difluorophenyl)-5-hydroxy-4-oxo-4H-chromen-7-yl)oxy)acetic Acid], in series [1], the “EPi (inhibition of efflux pump activity)” value is “↑ ^g”. Moreover, the IC50 on AmpC was greater than 50 µM; at VIM-2 it was 21 ± 1.3 µM; on OXA-48, greater than 100 µM; on KPC-2, greater than 50 µM; on NDM-1 it was 14.7 ± 1.6 µM. The “FD (fold decrease in the MIC of ATM upon combination with the compound)” value in series [2] worked out at 4. For the same compound, the MIC in series [2] was greater than 256 µg/mL.
With `C[N+](C)(CCNC(=O)COc1cc(O)c2c(=O)c(OCCC3CCCCC3)c(-c3ccc(F)c(F)c3)oc2c1)CC(=O)[O-]` [Compound 8, 2-((2-(2-((3-(2-Cyclohexylethoxy)-2-(3,4-difluorophenyl)-5-hydroxy-4-oxo-4H-chromen-7-yl)oxy)acetamido)ethyl)dimethylammonio)acetate], the “EPi (inhibition of efflux pump activity)” value in series [1] is “- ^f”. For the same compound, the IC50 on AmpC is greater than 50 µM; at VIM-2, greater than 100 µM; on OXA-48, greater than 100 µM; at KPC-2, greater than 50 µM; on NDM-1, greater than 50 µM. Besides, the “FD (fold decrease in the MIC of ATM upon combination with the compound)” value in series [2] is 2. Further, the minimum inhibitory concentration (MIC) in series [2] is greater than 256 µg/mL.
`O=C(O)CC(Oc1cc(O)c2c(=O)c(OCCC3CCCCC3)c(-c3ccc(F)c(F)c3)oc2c1)C(=O)O` (centres unmarked) [Compound 4, 2-((3-(2-Cyclohexylethoxy)-2-(3,4-difluorophenyl)-5-hydroxy-4-oxo-4H-chromen-7-yl)oxy)succinic Acid]: the “EPi (inhibition of efflux pump activity)” value in series [1] is “- ^f”. The IC50 at AmpC is greater than 50 µM; at VIM-2, greater than 100 µM; on OXA-48, greater than 100 µM; at KPC-2, greater than 50 µM; on NDM-1, greater than 50 µM. Also, in series [2], the “FD (fold decrease in the MIC of ATM upon combination with the compound)” value is given as 1. Besides, the MIC in series [2] is greater than 256 µg/mL.
As for `CC(C)(C)CCOc1c(-c2ccc(F)c(F)c2)oc2cc(OCC(=O)N[C@@H](CCCCN)C(=O)O)cc(O)c2c1=O.Cl` [Compound 11, (S)-6-Amino-2-(2-((2-(3,4-difluorophenyl)-3-(3,3-dimethylbutoxy)-5-hydroxy-4-oxo-4H-chromen-7-yl)oxy)acetamido)hexanoic Acid Hydrochloride], in series [1], the “EPi (inhibition of efflux pump activity)” value was “- ^f”. Further, the IC50 on AmpC was greater than 50 µM; at VIM-2, greater than 100 µM; on OXA-48, greater than 100 µM; at KPC-2 it was greater than 50 µM; on NDM-1 it was greater than 50 µM. In addition, in series [2], the “FD (fold decrease in the MIC of ATM upon combination with the compound)” value was found to be 1. In addition, the MIC in series [2] was greater than 256 µg/mL.
With `CN1CCN(CCOc2cc(O)c3c(=O)c(OCCC4CCCC4)c(-c4ccc(F)c(F)c4)oc3c2)CC1` [Compound 14, 3-(2-Cyclopentylethoxy)-2-(3,4-difluorophenyl)-5-hydroxy-7-(2-(4-methylpiperazin-1-yl)ethoxy)-4H-chromen-4-one], the “EPi (inhibition of efflux pump activity)” value in series [1] was “- ^f”. For the same compound, the IC50 at AmpC was greater than 50 µM; on VIM-2 it was greater than 100 µM; at OXA-48, greater than 100 µM; at KPC-2, greater than 50 µM; on NDM-1, greater than 50 µM. Further, the “FD (fold decrease in the MIC of ATM upon combination with the compound)” value in series [2] is on record as 2. Further, in series [2], the MIC was greater than 256 µg/mL.

As a reminder, the IC50 is the midpoint of a concentration-inhibition curve. By MIC is commonly meant the lowest concentration that inhibits growth of the organism. Usually Cmax stands for the peak of the concentration-time curve.

Values taken from PMC11672637, “7-O-Carboxylic Acid-Substituted 3-O-Alkyl Difluoroquercetin; An Aztreonam-Potentiating Agent Against Carbapenemase-Producing Pseudomonas aeruginosa Through Simultaneous Inhibition of Metallo-β-Lactamase and Efflux Pump” (Antibiotics, 2024).
